Results as given in ChEMBL document CHEMBL3352178, “Antidepressant- and anxiolytic-like activity of 7-phenylpiperazinylalkyl-1,3-dimethyl-purine-2,6-dione derivatives with diversified 5-HT₁A receptor functional profile” (Bioorg Med Chem, 2015).
The source made the active and inactive calls. The calls are words filed in the database; no cut-off is given here.

Experiments:
[1] = target: 5-hydroxytryptamine receptor 2A (Rattus norvegicus, UniProt P14842); test: Displacement of [3H]-ketanserin from 5-HT2AR in rat cortex
[2] = target: 5-hydroxytryptamine receptor 7 (Homo sapiens, UniProt P34969); test: Displacement of [3H]]-5-CT from human cloned 5-HT7R expressed in HEK293 cells; format: cell-based
[3] = target: 5-hydroxytryptamine receptor 6 (Homo sapiens, UniProt P50406); test: Displacement of [3H]LSD from human cloned 5-HT6R expressed in HEK293 cells; format: cell-based
D(2) dopamine receptor = D(2) dopamine receptor (Rattus norvegicus, UniProt P61169); test: Displacement of [3H]-spiperone from dopamine D2 receptor in rat striatum
[4] = target: T1, 5-hydroxytryptamine receptor 1A (Rattus norvegicus, UniProt P19327); test: Displacement of [3H]-8-OH-DPAT from 5-HT1AR in rat hippocampus; format: tissue-based
T1 sequence (P19327 whole entry): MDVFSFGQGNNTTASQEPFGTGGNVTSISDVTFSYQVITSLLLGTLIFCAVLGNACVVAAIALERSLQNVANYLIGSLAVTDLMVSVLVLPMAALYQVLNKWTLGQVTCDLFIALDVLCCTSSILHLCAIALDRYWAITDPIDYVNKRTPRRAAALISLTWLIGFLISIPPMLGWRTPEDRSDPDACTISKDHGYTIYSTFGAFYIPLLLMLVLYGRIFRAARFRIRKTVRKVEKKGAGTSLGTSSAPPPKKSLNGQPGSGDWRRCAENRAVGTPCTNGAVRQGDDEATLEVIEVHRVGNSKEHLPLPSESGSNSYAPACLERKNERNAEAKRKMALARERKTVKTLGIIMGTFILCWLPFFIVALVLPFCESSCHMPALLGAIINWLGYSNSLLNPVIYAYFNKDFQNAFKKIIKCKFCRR

Mus musculus [5] = test: Effect on spontaneous locomotor activity in ip dosed mouse during 2 to 6 mins; format: ADME, organism-based; details: in vivo
Mus musculus [6] = test: Antidepressant-like activity in mouse assessed as reduction in immobility time at 10 to 20 mg/kg, ip dosed 60 mins before test by forced swim test; format: functional, organism-based
Mus musculus [7] = test: Antidepressant-like activity in mouse assessed as reduction in immobility time at 1.25 to 10 mg/kg, ip dosed 60 mins before test by forced swim test; format: functional, organism-based
Rattus norvegicus [8] = test: Induction of lower lip retraction in rat assessed as lower lip retraction scores at 10 mg/kg, ip dosed 15 mins before test; format: functional; details: route intraperitoneal
Rattus norvegicus [9] = test: Induction of lower lip retraction in rat assessed as lower lip retraction scores at 5 mg/kg, ip dosed 15 mins before test; format: functional; details: route intraperitoneal
Mus musculus [10] = test: Effect on spontaneous locomotor activity in mouse at 2.5 mg/kg, ip; format: ADME, organism-based; set-up: dose 2.5 mg/kg, route intraperitoneal; details: in vivo
Mus musculus [11] = test: Induction of hypothermia in mouse assessed as change in body temperature at 10 mg/kg, ip administered 30 mins before test and measured 90 mins post dose; format: functional, organism-based; set-up: dose 10 mg/kg
Mus musculus [12] = test: Induction of hypothermia in mouse assessed as change in body temperature at 5 mg/kg, ip administered 30 mins before test and measured 120 mins post dose; format: functional, organism-based; set-up: dose 5 mg/kg
Mus musculus [13] = test: Induction of hypothermia in mouse assessed as change in body temperature at 10 mg/kg, ip administered 30 mins before test and measured 120 mins post dose; format: functional, organism-based; set-up: dose 10 mg/kg
Mus musculus [14] = test: Induction of hypothermia in mouse assessed as change in body temperature at 5 mg/kg, ip administered 30 mins before test and measured 60 mins post dose; format: functional, organism-based; set-up: dose 5 mg/kg
Rattus norvegicus [15] = test: Inhibition of 8-OH-DPAT-induced lower lip retraction in rat assessed as lower lip retraction scores at 5 mg/kg, ip dosed 45 mins before 8-OH-DPAT; format: functional; details: route intraperitoneal
Mus musculus [16] = test: Induction of hypothermia in mouse assessed as change in body temperature at 5 mg/kg, ip administered 30 mins before test and measured 30 mins post dose; format: functional, organism-based; set-up: dose 5 mg/kg
Mus musculus [17] = test: Induction of hypothermia in mouse assessed as change in body temperature at 10 mg/kg, ip administered 30 mins before test and measured 60 mins post dose in presence of 0.3 mg/kg, sc 5HT1A receptor antagonist WAY 100635; format: functional, organism-based
Rattus norvegicus [18] = test: Induction of lower lip retraction in rat assessed as lower lip retraction scores at 10 mg/kg, ip dosed 45 mins after 0.3 mg/kg, sc 5HT1A receptor antagonist WAY 100635; format: functional
Mus musculus [19] = test: Anxiolytic-like activity in mouse assessed as increase in number of punished crossings at 2.5 mg/kg, ip dosed 60 mins before test in presence of 0.3 mg/kg, sc 5HT1A receptor antagonist WAY 100635 by four plate test; format: functional, organism-based
Mus musculus [20] = test: Induction of hypothermia in mouse assessed as change in body temperature at 5 mg/kg, ip administered 30 mins before test and measured 90 mins post dose; format: functional, organism-based; set-up: dose 5 mg/kg
Mus musculus [21] = test: Induction of hypothermia in mouse assessed as change in body temperature at 10 mg/kg, ip administered 30 mins before test and measured 30 mins post dose in presence of 0.3 mg/kg, sc 5HT1A receptor antagonist WAY 100635; format: functional, organism-based
Mus musculus [22] = test: Anxiolytic-like activity in mouse assessed as increase in number of punished crossings at 2.5 mg/kg, ip dosed 60 mins before test by four plate test; format: functional; details: route intraperitoneal
Mus musculus [23] = test: Induction of hypothermia in mouse assessed as change in body temperature at 10 mg/kg, ip administered 30 mins before test and measured 60 mins post dose; format: functional, organism-based; set-up: dose 10 mg/kg
Mus musculus [24] = test: Induction of hypothermia in mouse assessed as change in body temperature at 10 mg/kg, ip administered 30 mins before test and measured 30 mins post dose; format: functional, organism-based; set-up: dose 10 mg/kg

Sequence of D(2) dopamine receptor (P61169 whole entry): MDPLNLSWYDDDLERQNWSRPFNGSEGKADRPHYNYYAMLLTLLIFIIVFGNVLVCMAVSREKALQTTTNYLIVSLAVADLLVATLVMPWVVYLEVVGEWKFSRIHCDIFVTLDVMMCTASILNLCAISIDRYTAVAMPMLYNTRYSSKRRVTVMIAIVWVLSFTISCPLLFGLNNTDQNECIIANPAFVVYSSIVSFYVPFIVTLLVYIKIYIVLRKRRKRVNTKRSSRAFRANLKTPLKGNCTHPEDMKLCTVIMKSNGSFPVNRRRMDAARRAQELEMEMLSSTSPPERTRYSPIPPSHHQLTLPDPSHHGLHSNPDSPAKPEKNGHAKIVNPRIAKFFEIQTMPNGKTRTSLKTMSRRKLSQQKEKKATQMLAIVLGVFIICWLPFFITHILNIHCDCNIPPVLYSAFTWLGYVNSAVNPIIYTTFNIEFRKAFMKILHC
Sequence of 5-hydroxytryptamine receptor 2A (P14842 whole entry): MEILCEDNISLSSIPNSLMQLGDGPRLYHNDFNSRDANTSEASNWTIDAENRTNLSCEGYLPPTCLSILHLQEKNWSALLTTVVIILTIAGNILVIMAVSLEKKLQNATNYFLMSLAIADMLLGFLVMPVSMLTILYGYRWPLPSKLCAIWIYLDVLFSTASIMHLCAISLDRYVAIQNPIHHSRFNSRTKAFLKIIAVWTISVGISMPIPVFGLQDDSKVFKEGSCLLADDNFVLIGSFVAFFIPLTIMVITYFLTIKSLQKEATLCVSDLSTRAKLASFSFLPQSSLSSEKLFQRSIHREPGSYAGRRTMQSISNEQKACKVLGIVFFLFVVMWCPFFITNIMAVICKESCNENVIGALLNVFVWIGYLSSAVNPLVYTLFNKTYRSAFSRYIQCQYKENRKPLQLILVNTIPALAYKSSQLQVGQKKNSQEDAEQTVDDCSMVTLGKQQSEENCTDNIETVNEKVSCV
Sequence of 5-hydroxytryptamine receptor 7 (P34969 whole entry): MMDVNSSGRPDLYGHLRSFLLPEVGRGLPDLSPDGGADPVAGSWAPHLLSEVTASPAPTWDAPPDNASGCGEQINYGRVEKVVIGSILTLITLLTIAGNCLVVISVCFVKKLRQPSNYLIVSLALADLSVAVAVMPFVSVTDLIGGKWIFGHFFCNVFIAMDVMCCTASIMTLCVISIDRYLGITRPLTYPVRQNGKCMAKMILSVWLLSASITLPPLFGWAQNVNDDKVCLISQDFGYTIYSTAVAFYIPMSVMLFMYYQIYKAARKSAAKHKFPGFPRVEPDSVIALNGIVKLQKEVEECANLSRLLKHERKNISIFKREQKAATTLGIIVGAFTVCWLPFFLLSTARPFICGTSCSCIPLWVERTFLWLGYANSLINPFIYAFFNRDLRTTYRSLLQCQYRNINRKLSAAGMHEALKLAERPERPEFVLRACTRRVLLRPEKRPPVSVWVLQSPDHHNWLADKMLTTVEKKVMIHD
Sequence of 5-hydroxytryptamine receptor 6 (P50406 whole entry): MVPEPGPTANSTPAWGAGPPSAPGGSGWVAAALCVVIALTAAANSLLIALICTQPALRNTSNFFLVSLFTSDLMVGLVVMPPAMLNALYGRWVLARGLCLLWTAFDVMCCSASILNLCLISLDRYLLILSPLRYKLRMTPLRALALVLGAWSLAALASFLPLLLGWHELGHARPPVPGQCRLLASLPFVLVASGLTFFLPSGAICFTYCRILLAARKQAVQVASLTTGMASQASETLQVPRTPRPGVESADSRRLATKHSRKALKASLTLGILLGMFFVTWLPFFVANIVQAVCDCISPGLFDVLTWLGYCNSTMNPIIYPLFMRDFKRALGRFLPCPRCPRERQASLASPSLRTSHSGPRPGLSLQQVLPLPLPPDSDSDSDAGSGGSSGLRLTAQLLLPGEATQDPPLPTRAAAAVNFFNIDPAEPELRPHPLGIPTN

Row | Ki [1] [nM] | Ki [2] [nM] | Ki [3] [nM] | Ki (D(2) dopamine receptor) [nM] | Ki [4] [nM] | Compound | further results
1 | 460 | 179 | 1900 | 73 | 105 | Cn1c(=O)c2c(ncn2CCCCN2CCN(c3ccc(Cl)c(Cl)c3)CC2)n(C)c1=O | 
2 | 16400 | 1010 | 9140 | 1220 | 171 | Cn1c(=O)c2c(ncn2CCCCCN2CCc3ccccc3C2)n(C)c1=O | 
3 |  |  |  |  |  | CN(C)CCCN1c2ccccc2CCc2ccccc21 [IMIPRAMINE] | Activity (Mus musculus [5]): Non-toxic; Activity (Mus musculus [6]): Active
4 | 507 | 1150 | 14200 | 1010 | 23 | Cn1c(=O)c2c(ncn2CCCCN2CCN(c3ccccc3)CC2)n(C)c1=O | 
5 | 1050 | 434 | 1970 | 65 | 1.2 | COc1ccccc1N1CCN(CCCCn2cnc3c2c(=O)n(C)c(=O)n3C)CC1 | 
6 | 10500 | 3620 | 12300 | 2710 | 433 | Cn1c(=O)c2c(ncn2CCCN2CCc3ccccc3C2)n(C)c1=O | 
7 | 308 | 346 | 10300 | 356 | 11 | Cl.Cn1c(=O)c2c(ncn2CCCCCN2CCN(c3ccccc3)CC2)n(C)c1=O | Activity (Mus musculus [7]): inactive; Activity (Rattus norvegicus [8]): 2; Activity (Rattus norvegicus [9]): 0.4; Activity (Mus musculus [10]): Non-toxic; deltaT (Mus musculus [11]): -1.4 °C; deltaT (Mus musculus [12]): 0.4 °C; deltaT (Mus musculus [13]): -1.3 °C; deltaT (Mus musculus [14]): 1.1 °C; Activity (Rattus norvegicus [15]): 1.7; deltaT (Mus musculus [16]): -1.4 °C; deltaT (Mus musculus [17]): -0.9 °C; Activity (Rattus norvegicus [18]): 0.2; Activity (Mus musculus [19]): inactive; deltaT (Mus musculus [20]): -0.1 °C; deltaT (Mus musculus [21]): -0.2 °C; Activity (Mus musculus [22]): 50%; deltaT (Mus musculus [23]): -1.5 °C; deltaT (Mus musculus [24]): -0.9 °C
8 | 92 | 1430 | 20100 | 1090 | 571 | Cn1c(=O)c2c(ncn2CCCN2CCN(c3ccccc3)CC2)n(C)c1=O | 
